Columns and labels:
[1] = system: enzymatically isolated cuticles of apple tree leaves; experiment: Penetration test, epoxiconazole (Example 11); type: in vitro ADME, apple trees of the Golden Delicious variety; details: without N,N-dibutylcarboxamide, 0.3 g/l epoxiconazole in acetone/water, 20° C., 60% relative air humidity
Procedure: (§1) In this test, the penetration of active ingredients though enzymatically isolated cuticles of apple tree leaves was measured. Leaves which had been cut off in the fully developed state from apple trees of the Golden Delicious variety were used.
(§2) Thereafter, only the cuticles of the upper leaf sides which were free of stomata and hairs were used in the further procedure. They were repeatedly washed alternately with water and a buffer solution of pH 7. The clean cuticles obtained were finally applied to Teflon sheets and smoothed and dried with a gentle air stream.
(§3) In the next step, the cuticular membranes thus obtained were placed into stainless steel diffusion cells (=transport chambers) for membrane transport studies. For this purpose, the cuticles were positioned using tweezers centrally onto the edges of the diffusion cells which had been smeared with silicone grease and sealed with a ring which had likewise been greased. The arrangement was selected such that the morphological outer side of the cuticles was directed outward, i.e. toward the air, while the original inner side faced the interior of the diffusion cell. […]
(§4) To determine the penetration, 10 μl in each case of a spray liquor of the composition specified in the examples were applied to the outer side of a cuticle. […] The active ingredient penetration was measured by means of HPLC or radiolabeled active ingredient.

[2] = system: enzymatically isolated cuticles of apple tree leaves; experiment: Penetration test, azoxystrobin (Example 10); type: in vitro ADME, apple trees of the Golden Delicious variety; details: without N,N-dibutylcarboxamide, 0.3 g/l azoxystrobin in acetone/water, 20° C., 60% relative air humidity
Procedure: as §1, §2, §3, §4

[3] = system: enzymatically isolated cuticles of apple tree leaves; experiment: Penetration test, bromoxynil, dimethyl vs dibutyl amides (Example 6); type: in vitro ADME, apple trees of the Golden Delicious variety; details: no N,N-dialkylcarboxamide, 0.5 g/l castor oil ethoxylate emulsifier only, 1.5 g/l bromoxynil in acetone/water, 20° C., 60% relative air humidity
Procedure: as §1, §2, §3, §4

[4] = system: isolated apple leaf cuticles; experiment: Penetration test, fluopyram EC (Example 21); type: in vitro ADME, apple trees of the Golden Delicious variety; details: no carboxamide, 0.5 g/l fluopyram, 0.5 g/l emulsifier, 2% by weight solvent, 25° C., 60% relative air humidity
Procedure: The active ingredient fluopyram was made up as an EC formulation in the laboratory: fluopyram is dissolved in a preliminary mixture of solvent and emulsifier (dimethylacetamide+Tanemul PS16) and diluted with water to give the ready-to-use test solution. The test solution contains 0.5 g/l active ingredient, 0.5 g/l emulsifier and 2% by weight of solvent.

[5] = system: enzymatically isolated cuticles of apple tree leaves; experiment: Penetration test, isopyrazam (Example 13); type: in vitro ADME, apple trees of the Golden Delicious variety; details: without N,N-dibutylcarboxamide, 0.3 g/l isopyrazam in acetone/water, 20° C., 60% relative air humidity
Procedure: as §1, §2, §3, §4

[6] = system: enzymatically isolated cuticles of apple tree leaves; experiment: Penetration test, kresoxim-methyl (Example 9); details: without N,N-dibutylcarboxamide, 0.3 g/l kresoxim-methyl in acetone/water, 20° C., 60% relative air humidity
Procedure: as §1, §2, §3, §4

[7] = system: enzymatically isolated cuticles of apple tree leaves; experiment: Penetration test, propiconazole (Example 12); type: in vitro ADME, apple trees of the Golden Delicious variety; details: without N,N-dibutylcarboxamide, 0.3 g/l propiconazole in acetone/water, 20° C., 60% relative air humidity
Procedure: as §1, §2, §3, §4

[8] = system: enzymatically isolated cuticles of apple tree leaves; experiment: Penetration test, prothioconazole in acetone/water (Example 15); type: in vitro ADME, apple trees of the Golden Delicious variety; details: without N,N-dibutylcarboxamide, 0.3 g/l prothioconazole in acetone/water, 25° C., 60% relative air humidity
Procedure: as §1, §2, §3, §4

[9] = system: enzymatically isolated cuticles of apple tree leaves; experiment: Penetration test, prothioconazole with dimethyl amide plus dibutyl amides (Example 17); type: in vitro ADME, apple trees of the Golden Delicious variety; details: no N,N-dibutylcarboxamide, 0.8 g/l prothioconazole in acetone/water with 1.5 g/l N,N-dimethyl-C8-C10-carboxamide and 0.4 g/l tristyrylphenol ethoxylate, n = 21, 20° C., 60% relative air humidity
Procedure: as §1, §2, §3, §4

[10] = system: enzymatically isolated cuticles of apple tree leaves; experiment: Penetration test, spirotetramat in acetone/water (Example 7); type: in vitro ADME, apple trees of the Golden Delicious variety; details: without N,N-dibutylcarboxamide, 0.3 g/l spirotetramat in acetone/water, 20° C., 60% relative air humidity
Procedure: as §1, §2, §3, §4

For `Fc1ccc([C@]2(Cn3cncn3)O[C@H]2c2ccccc2Cl)cc1` (racemic) [epoxiconazole], the “Mean penetration of epoxiconazole in % 3 h” value ([1]; 3 h) was 1% and the “Mean penetration of epoxiconazole in % 24 h” value ([1]; 24 h) was 2%.

`CO/C=C(/C(=O)OC)c1ccccc1Oc1cc(Oc2ccccc2C#N)ncn1` [azoxystrobin] was tested, and the “Mean penetration of azoxystrobin in % 3 h” value ([2]; 3 h) was under 1% and the “Mean penetration of azoxystrobin in % 24 h” value ([2]; 24 h) was 1%.

In the case of `N#Cc1cc(Br)c(O)c(Br)c1` [bromoxynil], the “Mean penetration of bromoxynil in % 5 h” value ([3]; 5 h) is reported as 4% and the “Mean penetration of bromoxynil in % 24 h” value ([3]; 24 h) is reported as 20%.

In the case of `O=C(NCCc1ncc(C(F)(F)F)cc1Cl)c1ccccc1C(F)(F)F` [fluopyram], the “Mean penetration of fluopyram in % 6 h” value ([4]; 6 h) is reported as 20% and the “Mean penetration of fluopyram in % 24 h” value ([4]; 24 h) is reported as 53%.

In the case of `CC(C)C1C2CCC1c1c(NC(=O)c3cn(C)nc3C(F)F)cccc12` (centres unmarked) [isopyrazam], the “Mean penetration of isopyrazam in % 3 h” value ([5]; 3 h) is reported as 1% and the “Mean penetration of isopyrazam in % 24 h” value ([5]; 24 h) is reported as 2%.

For `CO/N=C(/C(=O)OC)c1ccccc1COc1ccccc1C` [kresoxim-methyl], the “Mean penetration of kresoxim-methyl in % 3 h” value ([6]; 3 h) was 1% and the “Mean penetration of kresoxim-methyl in % 24 h” value ([6]; 24 h) was 3%.

In the case of `CCCC1COC(Cn2cncn2)(c2ccc(Cl)cc2Cl)O1` (centres unmarked) [propiconazole], the “Mean penetration of propiconazole in % 3 h” value ([7]; 3 h) is reported as 4% and the “Mean penetration of propiconazole in % 24 h” value ([7]; 24 h) is reported as 44%.

`OC(Cc1ccccc1Cl)(Cn1nc[nH]c1=S)C1(Cl)CC1` (centres unmarked) [prothioconazole] was tested, and the “Mean penetration of prothioconazole in % 3 h” value ([8]; 3 h) was 1%, the “Mean penetration of prothioconazole in % 24 h” value ([8]; 24 h) was 2% and the “Mean penetration of prothioconazole in % 3 h” value ([9]; 3 h) was 1.3 (n = 21) %. For the same compound, the “Mean penetration of prothioconazole in % 24 h” value ([9]; 24 h) was 3.7 (n = 21) %.

For `CCOC(=O)OC1=C(c2cc(C)ccc2C)C(=O)N[C@]12CC[C@@H](OC)CC2` [spirotetramat], the “Mean penetration of spirotetramat in % 3 h” value ([10]; 3 h) was 0% and the “Mean penetration of spirotetramat in % 24 h” value ([10]; 24 h) was 1%.

— US9510589B2, “Use and agrochemical composition of carboxylic acid dibutylamides” (priority 2011, dated 2016)
